Assay results: ChEMBL document CHEMBL1201862, “PubChem BioAssay data set” (2004)
Activity calls are given as the source filed them.

Assays:
[1] = target: Lysosomal acid glucosylceramidase (Homo sapiens, UniProt P04062); test: Dose response cell-based high throughput screening assay to identify enhancers of beta-glucosidase activity. [Related pubchem assays: 784 ]; type: functional
Insulin-degrading enzyme = target: T1, Insulin-degrading enzyme (Homo sapiens, UniProt P14735); test: Dose Response: Fluorescence polarization-based cell-based high throughput dose response assay for inhibitors of insulin-degrading enzyme (IDE). [Related pubchem assays: 434962 (Primary screen (IDE inhibitors in singlicate)), 449730 (Counterscreen (Cytotoxicity in triplicate)), 435028 (Confirmation (IDE inhibitors in triplicate)), 434984 (Summary …; type: functional
T1 sequence (P14735 whole entry): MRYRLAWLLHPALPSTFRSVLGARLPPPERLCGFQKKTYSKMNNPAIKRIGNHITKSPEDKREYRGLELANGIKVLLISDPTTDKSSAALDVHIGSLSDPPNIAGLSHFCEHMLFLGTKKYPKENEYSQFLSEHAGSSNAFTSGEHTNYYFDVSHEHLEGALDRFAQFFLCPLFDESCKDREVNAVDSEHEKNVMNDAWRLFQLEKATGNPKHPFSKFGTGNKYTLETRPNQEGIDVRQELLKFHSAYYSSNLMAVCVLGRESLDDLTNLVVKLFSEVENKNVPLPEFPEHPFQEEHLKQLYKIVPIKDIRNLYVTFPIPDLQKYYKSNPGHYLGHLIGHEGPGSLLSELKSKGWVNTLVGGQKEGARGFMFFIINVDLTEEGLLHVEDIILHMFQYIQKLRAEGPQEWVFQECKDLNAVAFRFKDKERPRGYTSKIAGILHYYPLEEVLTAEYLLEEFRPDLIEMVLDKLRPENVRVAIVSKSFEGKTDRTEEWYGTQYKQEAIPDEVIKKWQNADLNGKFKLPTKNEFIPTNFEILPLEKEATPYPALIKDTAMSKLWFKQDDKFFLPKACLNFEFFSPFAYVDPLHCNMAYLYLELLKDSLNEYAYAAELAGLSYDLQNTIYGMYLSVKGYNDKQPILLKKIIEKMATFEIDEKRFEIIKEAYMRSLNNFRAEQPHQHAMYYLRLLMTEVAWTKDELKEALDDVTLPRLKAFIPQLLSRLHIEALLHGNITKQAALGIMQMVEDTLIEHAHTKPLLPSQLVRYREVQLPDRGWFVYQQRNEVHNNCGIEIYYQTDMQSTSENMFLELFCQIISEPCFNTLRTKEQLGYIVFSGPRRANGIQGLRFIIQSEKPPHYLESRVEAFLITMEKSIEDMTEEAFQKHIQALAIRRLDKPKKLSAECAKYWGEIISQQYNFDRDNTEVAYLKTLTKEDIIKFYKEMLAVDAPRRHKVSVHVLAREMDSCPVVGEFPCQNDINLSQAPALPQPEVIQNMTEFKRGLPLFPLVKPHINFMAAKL

[2] = target: T2, Corticotropin-releasing factor receptor 2/Corticotropin-releasing factor-binding protein (Homo sapiens, UniProt P24387+Q13324); test: activators of CRF receptor 2 with binding protein – uHTS hits, confirmation (AID 602473); type: functional; details: read-out: EC50_Mean
T2 sequence (Q13324 whole entry): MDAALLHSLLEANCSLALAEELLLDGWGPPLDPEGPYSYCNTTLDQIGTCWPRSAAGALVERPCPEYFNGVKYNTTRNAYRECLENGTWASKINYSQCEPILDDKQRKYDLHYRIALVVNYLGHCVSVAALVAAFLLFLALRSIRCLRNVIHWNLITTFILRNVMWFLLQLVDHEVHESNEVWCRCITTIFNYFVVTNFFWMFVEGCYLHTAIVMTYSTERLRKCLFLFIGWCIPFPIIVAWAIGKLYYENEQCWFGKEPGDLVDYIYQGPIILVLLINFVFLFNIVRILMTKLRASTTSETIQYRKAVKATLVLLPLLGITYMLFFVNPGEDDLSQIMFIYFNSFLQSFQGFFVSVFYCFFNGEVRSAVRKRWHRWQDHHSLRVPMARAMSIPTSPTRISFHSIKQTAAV
T2 sequence (P24387 whole entry): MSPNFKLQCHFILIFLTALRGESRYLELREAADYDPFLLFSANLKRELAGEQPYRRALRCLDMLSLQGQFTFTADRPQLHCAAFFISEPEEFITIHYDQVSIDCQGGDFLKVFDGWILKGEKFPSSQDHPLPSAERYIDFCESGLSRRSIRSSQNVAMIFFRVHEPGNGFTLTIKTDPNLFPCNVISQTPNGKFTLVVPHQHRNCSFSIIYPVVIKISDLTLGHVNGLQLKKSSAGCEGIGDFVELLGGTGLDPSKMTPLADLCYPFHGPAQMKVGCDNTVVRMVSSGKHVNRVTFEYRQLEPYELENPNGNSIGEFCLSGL

[3] = Counterscreen for IDE inhibitors: Luminescence-based cell-based high throughput dose response assay to identify compounds that are cytotoxic to HEK cells. [Related pubchem assays: 434962 (Primary screen (IDE inhibitors in singlicate)), 449730 (Counterscreen (Cytotoxicity in triplicate)), 435028 (Confirmation (IDE inhibitors in triplicate)) …; type: functional; details: HEK293
[4] = tested on: Streptococcus sp. 'group A'; test: growth inhibition of control SK(-) GAS strain, dose response, counter-screen for streptokinase expression inhibitor project, luminescence, kanamycin, BacTiterGlo, confirmation (AID 1900); type: functional, organism-based
Streptokinase A = target: T3, Streptokinase A (Streptococcus pyogenes serotype M1, UniProt P10520); test: S. pyogenes streptokinase expression inhibitors, potency, dose response, plasminogen activation absorbance, OD405 (AID 1914); type: functional, Streptococcus pyogenes M1 GAS;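 further: secreted streptokinase activity via plasminogen activation per viability signal from cell pellet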
T3 sequence (P10520 whole entry): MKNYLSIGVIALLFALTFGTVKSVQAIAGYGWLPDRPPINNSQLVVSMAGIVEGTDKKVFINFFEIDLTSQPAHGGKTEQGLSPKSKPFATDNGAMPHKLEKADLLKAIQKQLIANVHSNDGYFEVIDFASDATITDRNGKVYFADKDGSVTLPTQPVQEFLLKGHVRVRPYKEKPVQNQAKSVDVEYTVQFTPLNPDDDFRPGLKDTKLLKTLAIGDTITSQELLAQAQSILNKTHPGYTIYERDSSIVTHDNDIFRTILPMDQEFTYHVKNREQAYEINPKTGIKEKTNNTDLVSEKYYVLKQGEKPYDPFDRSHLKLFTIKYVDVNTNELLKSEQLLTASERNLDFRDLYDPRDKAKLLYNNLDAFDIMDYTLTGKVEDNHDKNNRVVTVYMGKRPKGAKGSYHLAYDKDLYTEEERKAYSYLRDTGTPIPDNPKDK

Streptococcus = test: Group A Streptococcus viability loss, dose response, counter-screen for streptokinase expression inhibitor project, luminescence, BacTiterGlo (AID 1915); type: functional, organism-based;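 further: potency for reduction of bacterial viability or growth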
[5] = target: T4, Neuropeptide Y receptor type 2 (Homo sapiens, UniProt P49146); test: NPY-Y2 antagonist potency, selectivity check, dose response, counter-screen for NPY-Y1 antagonist project, cell-based (AID 1278); type: functional
T4 sequence (P49146 whole entry): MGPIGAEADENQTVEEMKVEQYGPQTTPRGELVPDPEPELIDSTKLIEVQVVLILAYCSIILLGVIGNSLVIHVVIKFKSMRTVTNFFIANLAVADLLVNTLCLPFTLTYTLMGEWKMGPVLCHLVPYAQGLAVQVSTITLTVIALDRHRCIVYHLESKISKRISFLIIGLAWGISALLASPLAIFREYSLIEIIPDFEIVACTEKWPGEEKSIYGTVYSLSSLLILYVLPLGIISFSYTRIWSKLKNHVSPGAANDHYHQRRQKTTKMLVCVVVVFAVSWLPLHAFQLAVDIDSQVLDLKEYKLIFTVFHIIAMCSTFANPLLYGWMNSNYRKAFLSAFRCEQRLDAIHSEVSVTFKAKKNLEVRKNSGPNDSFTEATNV

[6] = target: T5, Neuropeptide Y receptor type 1 (Homo sapiens, UniProt P25929); test: NPY-Y1 receptor antagonist potency, dose response, cell-based (AID 1277); type: functional
T5 sequence (P25929 whole entry): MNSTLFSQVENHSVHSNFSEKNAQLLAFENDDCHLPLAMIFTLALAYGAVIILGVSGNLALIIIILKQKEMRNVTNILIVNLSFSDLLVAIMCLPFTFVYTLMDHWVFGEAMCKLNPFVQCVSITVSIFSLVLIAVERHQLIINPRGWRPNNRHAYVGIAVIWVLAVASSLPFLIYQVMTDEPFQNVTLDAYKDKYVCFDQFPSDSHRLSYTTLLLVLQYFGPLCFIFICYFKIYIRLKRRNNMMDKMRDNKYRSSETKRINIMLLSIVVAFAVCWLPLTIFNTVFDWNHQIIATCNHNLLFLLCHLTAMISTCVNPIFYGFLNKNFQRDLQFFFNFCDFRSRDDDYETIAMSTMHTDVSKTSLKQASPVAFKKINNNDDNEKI

Genome polyprotein = Genome polyprotein (dengue virus type 2, UniProt P29990); test: Dengue-2 NS5 methyltransferase inhibitors, primary screen, biochemical, confirmation dose response (AID 588689); type: functional
[7] = HIV-1 Env-mediated cell fusion inhibitors, dose response, CCR5-tropic Env (AID 2279); type: functional
[8] = target: T6, Long-chain-fatty-acid--AMP ligase FadD28 (Mycobacterium tuberculosis, UniProt P9WQ59); test: Fluorescence polarization aasay to screen for inhibitors that compete for the binding of FadD28 to a bisubstrate Measured in Biochemical System Using Plate Reader - 2147-01_Inhibitor_Dose_CherryPick_Activity.; type: functional, Mycobacterium tuberculosis H37Rv
T6 sequence (P9WQ59 whole entry): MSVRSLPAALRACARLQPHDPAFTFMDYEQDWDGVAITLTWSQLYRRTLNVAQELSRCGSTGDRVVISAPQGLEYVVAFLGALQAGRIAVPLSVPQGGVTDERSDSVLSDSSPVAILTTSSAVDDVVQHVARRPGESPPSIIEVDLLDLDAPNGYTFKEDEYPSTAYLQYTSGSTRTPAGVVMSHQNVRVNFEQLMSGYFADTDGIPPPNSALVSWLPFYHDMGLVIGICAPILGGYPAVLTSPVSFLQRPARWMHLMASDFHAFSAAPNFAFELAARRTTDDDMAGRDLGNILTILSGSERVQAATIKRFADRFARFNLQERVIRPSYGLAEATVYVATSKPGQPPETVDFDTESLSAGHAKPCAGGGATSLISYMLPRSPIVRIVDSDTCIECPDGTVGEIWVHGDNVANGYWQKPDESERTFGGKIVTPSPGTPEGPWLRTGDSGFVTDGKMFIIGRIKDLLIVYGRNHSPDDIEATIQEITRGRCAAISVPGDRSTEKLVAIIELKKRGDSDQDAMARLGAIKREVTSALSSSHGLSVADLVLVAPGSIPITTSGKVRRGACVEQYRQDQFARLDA

[9] = HEp-2 cell cytotoxicity, dose response, cytotoxicity control for RSV inhibitor project, HTS (AID 2410); type: functional; details: human respiratory syncytial virus
[10] = target: FAD-linked sulfhydryl oxidase ALR (Homo sapiens, UniProt P55789); test: inhibitors of human ALR sulfhydryl oxidase, dose response, biochemical, H2O2 detection, luminescence, cherry-pick (AID 493248)
Cytochrome P450 2D6 = Cytochrome P450 2D6 (Homo sapiens, UniProt P10635); test: qHTS Assay for Inhibitors and Substrates of Cytochrome P450 2D6. [Related pubchem assays: 410 ]; type: ADME; details: read-out: Potency
Cytochrome P450 2D6, sequence (P10635 whole entry): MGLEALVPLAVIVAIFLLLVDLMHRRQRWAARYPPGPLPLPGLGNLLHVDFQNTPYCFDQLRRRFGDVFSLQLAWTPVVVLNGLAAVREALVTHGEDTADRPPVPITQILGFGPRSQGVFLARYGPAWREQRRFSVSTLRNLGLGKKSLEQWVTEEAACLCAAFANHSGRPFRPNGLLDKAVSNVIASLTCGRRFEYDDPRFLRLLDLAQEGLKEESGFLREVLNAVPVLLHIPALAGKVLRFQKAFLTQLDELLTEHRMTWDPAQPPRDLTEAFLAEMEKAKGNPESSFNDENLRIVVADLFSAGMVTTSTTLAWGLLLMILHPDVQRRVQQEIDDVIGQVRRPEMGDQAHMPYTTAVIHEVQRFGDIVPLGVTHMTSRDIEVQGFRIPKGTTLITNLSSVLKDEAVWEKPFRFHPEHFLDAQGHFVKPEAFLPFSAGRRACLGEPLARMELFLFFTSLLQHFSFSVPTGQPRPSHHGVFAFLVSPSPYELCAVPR

FAD-linked sulfhydryl oxidase ALR, sequence (P55789 whole entry): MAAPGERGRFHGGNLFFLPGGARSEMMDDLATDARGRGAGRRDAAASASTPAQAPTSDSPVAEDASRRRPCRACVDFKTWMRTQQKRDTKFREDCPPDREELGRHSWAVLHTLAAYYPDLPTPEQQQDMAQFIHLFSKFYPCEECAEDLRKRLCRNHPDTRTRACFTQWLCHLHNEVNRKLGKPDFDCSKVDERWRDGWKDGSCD
Genome polyprotein, sequence (P29990 2492-3391 limits assumed): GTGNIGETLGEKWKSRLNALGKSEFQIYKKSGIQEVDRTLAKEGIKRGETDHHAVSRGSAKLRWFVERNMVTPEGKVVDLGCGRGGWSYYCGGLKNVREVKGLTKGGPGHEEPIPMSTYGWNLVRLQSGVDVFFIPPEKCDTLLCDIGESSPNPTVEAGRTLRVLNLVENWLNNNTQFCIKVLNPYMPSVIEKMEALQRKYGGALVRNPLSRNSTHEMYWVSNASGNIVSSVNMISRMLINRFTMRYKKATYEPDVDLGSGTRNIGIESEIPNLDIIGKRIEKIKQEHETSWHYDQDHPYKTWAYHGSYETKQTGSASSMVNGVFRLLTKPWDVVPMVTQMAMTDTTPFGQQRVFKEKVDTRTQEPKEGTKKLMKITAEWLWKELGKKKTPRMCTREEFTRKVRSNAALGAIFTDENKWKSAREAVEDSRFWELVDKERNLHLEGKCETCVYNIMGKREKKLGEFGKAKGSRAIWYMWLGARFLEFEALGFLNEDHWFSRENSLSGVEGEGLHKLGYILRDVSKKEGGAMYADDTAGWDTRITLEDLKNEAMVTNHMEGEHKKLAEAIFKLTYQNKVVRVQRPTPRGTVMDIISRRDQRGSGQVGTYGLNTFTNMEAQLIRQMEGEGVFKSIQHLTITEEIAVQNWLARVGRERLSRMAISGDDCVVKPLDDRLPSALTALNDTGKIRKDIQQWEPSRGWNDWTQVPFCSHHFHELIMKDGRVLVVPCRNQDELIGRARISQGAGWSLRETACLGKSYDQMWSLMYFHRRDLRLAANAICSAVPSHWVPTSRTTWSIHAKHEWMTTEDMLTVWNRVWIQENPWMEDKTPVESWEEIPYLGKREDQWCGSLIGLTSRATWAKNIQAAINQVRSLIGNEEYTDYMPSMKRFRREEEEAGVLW
Lysosomal acid glucosylceramidase, sequence (P04062 whole entry): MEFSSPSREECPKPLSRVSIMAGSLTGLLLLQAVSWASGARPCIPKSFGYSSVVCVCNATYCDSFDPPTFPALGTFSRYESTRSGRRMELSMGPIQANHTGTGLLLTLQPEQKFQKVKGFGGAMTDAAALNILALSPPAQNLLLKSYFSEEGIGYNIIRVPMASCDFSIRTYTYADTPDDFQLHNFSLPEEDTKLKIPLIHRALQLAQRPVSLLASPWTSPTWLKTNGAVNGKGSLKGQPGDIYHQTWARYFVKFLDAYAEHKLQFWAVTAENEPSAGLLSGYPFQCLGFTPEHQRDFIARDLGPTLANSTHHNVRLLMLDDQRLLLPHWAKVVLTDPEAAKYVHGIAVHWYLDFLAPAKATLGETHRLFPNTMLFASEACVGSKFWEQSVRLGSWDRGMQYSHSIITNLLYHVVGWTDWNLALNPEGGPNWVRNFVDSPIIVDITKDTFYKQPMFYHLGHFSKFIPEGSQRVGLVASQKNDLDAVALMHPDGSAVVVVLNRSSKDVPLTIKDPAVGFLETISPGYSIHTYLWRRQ

CC(CS(=O)(=O)c1cccc2cccnc12)N1CCCCC1 (stereo not given)
EC50 [1]: > 50 µM (not active)

CCN1/C(=C\C=C(C(C)=O)C(C)=O)Sc2ccccc21
IC50 (Insulin-degrading enzyme): 8.83 µM (active)
EC50 [2]: 4.9 µM (active)
IC50 [3]: 33.9 µM (not active)

COc1ccc(C(=O)/C(C#N)=N/Nc2cccc([N+](=O)[O-])c2)cc1
EC50 [4]: 22.8 µM (active)
EC50 (Streptokinase A): > 150 µM (not active)
EC50 (Streptococcus): 94.3 µM (active)
IC50 [5]: > 35 µM (not active)
IC50 [6]: > 35 µM (not active)

O=C(O)c1cc(N/N=C/c2ccc(-c3ccccc3)cc2)ccc1Cl
IC50 (Genome polyprotein): 61.5 µM (active)
IC50 [7]: 11 µM (active)
AC50 [8]: 18.4 µM (active)
CC50 [9]: 31.1 µM (active)
AC50 [10]: 1.83 µM (active)

COc1ccc([C@@H]2CC(=O)c3c(O)cc(O)cc3O2)cc1O [HESPERETIN]
AC50 (Cytochrome P450 2D6): 39.8 µM (inconclusive)
